These results are taken from patent US20240252488A1 (KOREA RESEARCH INSTITUTE OF CHEMICAL TECHNOLOGY, priority 2020, published 2024).

The subject of one experiment is FADD−/− Jurkat cells. The experiment in a line: Necroptosis inhibition assay, TNF-α-induced necroptosis (CellTiter-Glo 2.0). The class given is cell-based, human. As to conditions: TNF-α 15 ng/mL; for Necroptosis inhibition assay (Rescue %) 1 μM: compound 1 μM; for Necroptosis inhibition assay (Rescue %) 10 μM: compound 10 μM. Summed up:
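Necroptosis was triggered by TNF-α at 15 ng/mL final following 30 minutes of compound exposure (0.1, 1 or 10 μM final). Incubation ran 20 to 24 hours at 37° C under 5% CO2; cell ATP was then quantified by luminescence.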

In experiment [1] the target is T1, MLKL (Homo sapiens, UniProt Q8NB16).
T1 sequence (Q8NB16 1-471): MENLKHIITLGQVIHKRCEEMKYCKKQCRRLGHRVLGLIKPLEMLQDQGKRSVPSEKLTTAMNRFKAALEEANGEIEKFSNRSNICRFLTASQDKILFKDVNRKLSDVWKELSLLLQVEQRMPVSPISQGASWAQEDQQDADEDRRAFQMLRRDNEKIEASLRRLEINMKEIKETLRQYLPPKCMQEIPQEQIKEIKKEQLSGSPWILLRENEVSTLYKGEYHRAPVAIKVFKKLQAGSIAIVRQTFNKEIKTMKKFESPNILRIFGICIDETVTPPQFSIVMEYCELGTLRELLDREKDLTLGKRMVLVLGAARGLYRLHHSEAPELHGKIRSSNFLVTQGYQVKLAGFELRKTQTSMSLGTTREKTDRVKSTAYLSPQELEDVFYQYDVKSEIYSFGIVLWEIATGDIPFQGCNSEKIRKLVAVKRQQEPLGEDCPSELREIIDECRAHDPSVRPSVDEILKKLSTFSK
Description: Measurement of binding affinity with MLKL receptor (competitive binding assay, Kd). Also on record: made in house; host or cells: HEK 293 cell line (T7 phage in E. coli BL21-derived host is also described). Summed up: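 Kd comes from a bead-based competition format: compound-dependent loss of DNA-tagged, HEK 293-expressed MLKL capture, measured as eluate kinase by qPCR. Final DMSO is 0.9%.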

In experiment [2] the target is T1, MLKL. The experiment in a line: MLKL degradation assay in HepG2 cell line (western blot). Also on record: endogenous in cells; host or cells: HepG2 or HaCaT. The class given is cell-based. To be noted: cell line not given; for Degradation assay (Degradation %) 1 μM: compound 1 μM; for Degradation assay (Degradation %) 10 μM: compound 10 μM. The procedure, abridged:
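After treating HepG2 with test compounds (final 1 μM or 10 μM) for 20-24 h, we lysed cells, equalized protein by BCA and probed MLKL by overnight primary antibody at 4 °C followed by chemiluminescent detection.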
On the technique in general: A western blot detects proteins with antibodies after separation by electrophoresis.

Consider `Nc1ncc(-c2cnn(C3CCN(CCC4CCN(CC5CCN(C(=O)Cc6cccc(NC7=CC(=O)N(C8CCC(=O)NC8=O)C7=O)c6)CC5)CC4)CC3)c2)nc1C(=O)O[C@@H](C(=O)Nc1ccc(F)cc1)c1ccccc1` (stereo partly drawn) [TDH-510, (R)-2-((4-fluorophenyl)amino)-2-oxo-1-phenylethyl 3-amino-6-(1-(1-(2-(1-((1-(2-(3-((1-(2,6-dioxopiperidin-3-yl)-2,5-dioxo-2,5-dihydro-1H-pyrrol-3-yl)amino)phenyl)acetyl)piperidin-4-yl)methyl)piperidin-4-yl)ethyl)piperidin-4-yl)-1H-pyrazol-4-yl)pyrazine-2-carboxylate], for which, in the experiment on FADD−/− Jurkat cells (FADD−/− Jurkat cells), the “Necroptosis inhibition assay (Rescue %) 1 μM” value worked out at 28.63% and the “Necroptosis inhibition assay (Rescue %) 10 μM” value is given as −91.81%. Besides, binding at MLKL [1] was characterised by a dissociation constant (Kd) of 0.47 nM. Further, on MLKL [2], the “Degradation assay (Degradation %) 1 μM” value is 79.77% and the “Degradation assay (Degradation %) 10 μM” value came to 84.86%.

For `Nc1ncc(-c2cnn(C3CCN(CC4CCN(CC5CCN(C(=O)C6CCN(C7=CC(=O)N(C8CCC(=O)NC8=O)C7=O)CC6)CC5)CC4)CC3)c2)nc1C(=O)O[C@@H](C(=O)Nc1ccc(F)cc1)c1ccccc1` (stereo partly drawn) [TDH-527, (R)-2-((4-fluorophenyl)amino)-2-oxo-1-phenylethyl 3-amino-6-(1-(1-((1-((1-(1-(1-(2,6-dioxopiperidin-3-yl)-2,5-dioxo-2,5-dihydro-1H-pyrrol-3-yl)piperidine-4-carbonyl)piperidin-4-yl)methyl)piperidin-4-yl)methyl)piperidin-4-yl)-1H-pyrazol-4-yl)pyrazine-2-carboxylate], in the experiment on FADD−/− Jurkat cells (FADD−/− Jurkat cells), the “Necroptosis inhibition assay (Rescue %) 1 μM” value is recorded as 42.79% and the “Necroptosis inhibition assay (Rescue %) 10 μM” value is −12.98%. The Kd – broadly, a measure of binding affinity in units of concentration – on MLKL [1] stood at 1.2 nM. Further, on MLKL [2], the “Degradation assay (Degradation %) 1 μM” value is recorded as 71.10% and the “Degradation assay (Degradation %) 10 μM” value was 42.46%.

Regarding `Nc1ncc(-c2cnn(C3CCN(CC4CCN(CC(=O)NCCCNc5cccc6c5C(=O)N(C5CCC(=O)NC5=O)C6=O)CC4)CC3)c2)nc1C(=O)OC(C(=O)Nc1ccc(F)cc1)c1ccccc1` (stereo not drawn) [TDH-235, 2-((4-fluorophenyl)amino)-2-oxo-1-phenylethyl 3-amino-6-(1-(1-((1-(2-((3-((2-(2,6-dioxopiperidin-3-yl)-1,3-dioxoisoindolin-4-yl)amino)propyl)amino)-2-oxoethyl)piperidin-4-yl)methyl)piperidin-4-yl)-1H-pyrazol-4-yl)pyrazine-2-carboxylate], in the experiment on FADD−/− Jurkat cells, the “Necroptosis inhibition assay (Rescue %) 1 μM” value is recorded as 7.64% and the “Necroptosis inhibition assay (Rescue %) 10 μM” value is 19.27%. The compound further registered a Kd at MLKL [1] of 8.5 nM. On MLKL [2], the “Degradation assay (Degradation %) 1 μM” value turned out to be 45.01% and the “Degradation assay (Degradation %) 10 μM” value was 49.89%.

In the case of `Nc1ncc(-c2cnn(C3CCN(CC4CCN(CC5CCN(C(=O)C6CN(C7=CC(=O)N(C8CCC(=O)NC8=O)C7=O)C6)CC5)CC4)CC3)c2)nc1C(=O)O[C@@H](C(=O)Nc1ccc(F)cc1)c1ccccc1` (stereo partly drawn) [TDH-533, (R)-2-((4-fluorophenyl)amino)-2-oxo-1-phenylethyl 3-amino-6-(1-(1-((1-((1-(1-(1-(2,6-dioxopiperidin-3-yl)-2,5-dioxo-2,5-dihydro-1H-pyrrol-3-yl)azetidine-3-carbonyl)piperidin-4-yl)methyl)piperidin-4-yl)methyl)piperidin-4-yl)-1H-pyrazol-4-yl)pyrazine-2-carboxylate], in the experiment with FADD−/− Jurkat cells (FADD−/− Jurkat cells), the “Necroptosis inhibition assay (Rescue %) 1 μM” value is listed as 11.86% and the “Necroptosis inhibition assay (Rescue %) 10 μM” value worked out at 22.99%. Also, the Kd at MLKL [1] was found to be 0.47 nM. For the same compound, on MLKL [2], the “Degradation assay (Degradation %) 1 μM” value came out at 33.35% and the “Degradation assay (Degradation %) 10 μM” value worked out at 29.05%.

Take `Nc1ncc(-c2cnn(C3CCN(CCc4cn(C5CCN(C(=O)COc6ccc7c(c6)C(=O)N(C6CCC(=O)NC6=O)C7=O)CC5)nn4)CC3)c2)nc1C(=O)O[C@@H](C(=O)Nc1ccc(F)cc1)c1ccccc1` (stereo partly drawn) [TDH-451, (R)-2-((4-fluorophenyl)amino)-2-oxo-1-phenylethyl 3-amino-6-(1-(1-(2-(1-(1-(2-((2-(2,6-dioxopiperidin-3-yl)-1,3-dioxoisoindolin-5-yl)oxy)acetyl)piperidin-4-yl)-1H-1,2,3-triazol-4-yl)ethyl)piperidin-4-yl)-1H-pyrazol-4-yl)pyrazine-2-carboxylate]: in the experiment on FADD−/− Jurkat cells (FADD−/− Jurkat cells), the “Necroptosis inhibition assay (Rescue %) 1 μM” value was found to be 19.55% and the “Necroptosis inhibition assay (Rescue %) 10 μM” value is 17.67%. Besides, at MLKL [1], the affinity, expressed as Kd, was 0.54 nM. In addition, on MLKL [2], the “Degradation assay (Degradation %) 1 μM” value is reported as 64.37% and the “Degradation assay (Degradation %) 10 μM” value came to 50.39%.

Consider `Nc1ncc(-c2cnn(C3CCN(C(=O)COCCOCCNC(=O)CNc4cccc5c4C(=O)N(C4CCC(=O)NC4=O)C5=O)CC3)c2)nc1C(=O)O[C@@H](C(=O)Nc1ccc(F)cc1)c1ccccc1` (stereo partly drawn) [TDH-190, (R)-2-((4-fluorophenyl)amino)-2-oxo-1-phenylethyl 3-amino-6-(1-(1-(2-(2-(2-(2-((2-(2,6-dioxopiperidin-3-yl)-1,3-dioxoisoindolin-4-yl)amino)acetamido)ethoxy)ethoxy)acetyl)piperidin-4-yl)-1H-pyrazol-4-yl)pyrazine-2-carboxylate], for which, in the experiment with FADD−/− Jurkat cells, the “Necroptosis inhibition assay (Rescue %) 1 μM” value was determined as 39.55% and the “Necroptosis inhibition assay (Rescue %) 10 μM” value is 43.59%. Moreover, the Kd on MLKL [1] is 13 nM. In addition, the “Degradation assay (Degradation %) 10 μM” value on MLKL [2] turned out to be 4.57%.

For `Nc1ncc(-c2cnn(C3CCN(CCC4CCN(C(=O)COc5cccc6c5C(=O)N(C5CCC(=O)NC5=O)C6=O)CC4)CC3)c2)cc1C(=O)OC(C(=O)Nc1ccc(F)cc1)c1ccccc1` (stereo not drawn) [TDH-301, 2-((4-fluorophenyl)amino)-2-oxo-1-phenylethyl 2-amino-5-(1-(1-(2-(1-(2-((2-(2,6-dioxopiperidin-3-yl)-1,3-dioxoisoindolin-4-yl)oxy)acetyl)piperidin-4-yl)ethyl)piperidin-4-yl)-1H-pyrazol-4-yl)nicotinate], in the experiment on FADD−/− Jurkat cells, the “Necroptosis inhibition assay (Rescue %) 1 μM” value stood at 61.06% and the “Necroptosis inhibition assay (Rescue %) 10 μM” value is listed as 26.7%. In addition, the affinity on MLKL [1], expressed as Kd, was 2.9 nM. Also, on MLKL [2], the “Degradation assay (Degradation %) 1 μM” value is 76.3% and the “Degradation assay (Degradation %) 10 μM” value is recorded as 89.97%.

Take `Nc1ncc(-c2cnn(C3CCN(CC4CCN(CC(=O)NC5CCN(c6cccc7c6C(=O)N(C6CCC(=O)NC6=O)C7=O)CC5)CC4)CC3)c2)nc1C(=O)OC(C(=O)Nc1ccc(F)cc1)c1ccccc1` (stereo not drawn) [TDH-236, 2-((4-fluorophenyl)amino)-2-oxo-1-phenylethyl 3-amino-6-(1-(1-((1-(2-((1-(2-(2,6-dioxopiperidin-3-yl)-1,3-dioxoisoindolin-4-yl)piperidin-4-yl)amino)-2-oxoethyl)piperidin-4-yl)methyl)piperidin-4-yl)-1H-pyrazol-4-yl)pyrazine-2-carboxylate]: in the experiment with FADD−/− Jurkat cells, the “Necroptosis inhibition assay (Rescue %) 1 μM” value is 42.35% and the “Necroptosis inhibition assay (Rescue %) 10 μM” value came to 46.48%. In addition, the Kd on MLKL [1] worked out at 4.9 nM. Moreover, on MLKL [2], the “Degradation assay (Degradation %) 1 μM” value was 32.16% and the “Degradation assay (Degradation %) 10 μM” value was 27.8%.
